The values that follow come from publication PMC7198766, “Structure-Activity Studies on the Hypertrehalosemic Hormone II of the Stick Insect Carausius morosus (Phasmatodea): Carbohydrate-Mobilization and Cardio-Stimulatory Activities” (Frontiers in Physiology, 2020).

The subject of experiment [1] is heart of neck-ligated Carausius morosus. The experiment can be described thus: Semi-exposed heart bioassay (heart beat rate). Type of experiment: in vivo. The conditions noted are these: for % Activity relative to the effect of Carmo-HrTH-II (myotropic) / Heart rate, Difference: 20 pmol peptide in 150 μl; for % Activity relative to the effect of Carmo-HrTH-II (myotropic): heart rate increase relative to Carmo-HrTH-II = 100, NS = no significant increase; for Heart rate, Post-application: after application of 20 pmol peptide in 150 μl saline, average of first four counts; for Heart rate, Post-application / Heart rate, Pre-application: neck-ligated stick insects; for Heart rate, Pre-application: in saline before application, semi-exposed heart; for Heart rate, Difference: post- minus pre-application. As for the experimental part: The semi-exposed heart bioassay was carried out as described ([Marco et al., 2018]) with adult stick insects between 1 and 2 months old that were ligated at the neck. Briefly, a ventral incision of the abdomen exposed the ventral cavity with the internal organs; a few drops of stick insect saline (pH 6.6; 15 mM NaCl, 18 mM KCl, 7.5 mM CaCl2, 2 mM HEPES, 50 mM MgCl2, and 184 mM glucose according to [Ejaz and Lange, 2008]) were added to the exposed part. The semi-isolated heart preparation was viewed with a dissecting microscope (12-fold magnification), and the number of observed heart beats (contractions of the heart muscle) was counted during a fixed period using a manual tally counter and a timer. Once the heart had stabilized, saline was replaced with the test solution. For this the peptide stock solution of 5 pmol μl^–1 was diluted with stick insect saline to the desired concentration and a final volume of 150 μl was used for each test.
Heart rates under normal saline served as controls. The change in heart rate after the application of the test solution was calculated as an average of the first four counts and was compared to the average heart rates counted in saline before the application of the test solution. This comparison of change in heart rates was done for all the peptides tested.

Experiment [2] relates to ligated 6th instar Indian stick insects (Carausius morosus). The experiment in a line: Carbohydrate-mobilization (hypertrehalosemic) in vivo assay. The note with it: for Hemolymph carbohydrates, 90 min: 90 min after injection of 20 pmol peptide in 10 μl; for Hemolymph carbohydrates, 90 min / Hemolymph carbohydrates, Difference: neck-ligated 6th instar nymphs; for Hemolymph carbohydrates, Difference: 90 min minus 0 min, 20 pmol peptide in 10 μl injected; for Hemolymph carbohydrates, 0 min: before injection (0 min), 2 h after neck ligation, group later given 20 pmol peptide in 10 μl, 6th instar nymphs; for % Activity relative to the effect of Carmo-HrTH-II (metabolic): 20 pmol peptide injected, carbohydrate increase relative to Carmo-HrTH-II = 100, NS = no significant increase. As for the experimental part:
Sixth instar nymphs that were 1–2 days before molting were neck-ligated and used in the hypertrehalosemic in vivo assay as described in detail by [Gäde and Lohr (1982)]. Stock peptide solutions (5 pmol μl^–1) were diluted with distilled water to the desired concentration in 10 μl, which was injected into the stick insect nymphs.
In the first series of experiments, various doses of synthetic Carmo-HrTH-II and corpora cardiaca (CC) extract of C. morosus were used to determine the maximal hypertrehalosemic response of C. morosus. Hemolymph samples were taken from 17 to 18 days old 6th instar nymphs 2 h after they were neck-ligated and then 90 min after either CC extract or synthetic Carmo-HrTH-II was injected. Ligated nymphs injected with distilled water served as controls for handling stress. As depicted in Figures 1A,B, various doses of both Carmo-HrTH-II and CC extract increased the level of carbohydrates in the hemolymph in a dose-dependent manner. A dose of 0.04 pmol of synthetic Carmo-HrTH-II and the equivalent of 0.005 pairs of corpora cardiaca (pCC) were sufficient to give significant increases in hemolymph carbohydrates (p < 0.05). […] Doses of 0.1–0.5 pCC gave an average increase of 5.6 ± 0.6 mg carbohydrates ml^–1 hemolymph (Figure 1B); again, statistical analyses reveal no significant difference between the effect of these doses (p > 0.05).
Based on these pilot experiments, we selected a dose of 20 pmol for testing the analogs of Carmo-HrTH-II since such a dose of our lead compound, Carmo-HrTH-II had achieved maximal hypertrehalosemic activity.

Several values for one entry are separate records, joined by “and”; a condition that tells them apart may be missing. Equal entries are not always repeated. Marks after values point to notes of the source that are not given here.

Consider “Leu-Thr-Phe-Thr-Pro-Asn-Trp-Gly-Thr amide”, for which, in experiment [1], the “% Activity relative to the effect of Carmo-HrTH-II (myotropic)” value worked out at 58%; the “Heart rate, Post-application” value stood at 46 ± 5 beats min^−1; the “Heart rate, Pre-application” value was 39 ± 6 beats min^−1; the “Heart rate, Difference” value amounted to 7 ± 2 beats min^−1. Also, in experiment [2], the “Hemolymph carbohydrates, 90 min” value stood at 9.5 ± 1.5 mg/mL; the “Hemolymph carbohydrates, Difference” value was found to be 0.7 ± 1.3 mg/mL; the “Hemolymph carbohydrates, 0 min” value was 8.8 ± 1.7 mg/mL.

Consider “[N-Ac]Ala-Leu-Thr-Phe-Thr-Pro-Asn-Trp-Gly-Thr amide [Carmo-HrTH-II: [N-Ac]Ala^1]”, for which, in experiment [1], the “Heart rate, Post-application” value was 39 ± 6 beats min^−1; the “Heart rate, Pre-application” value came to 39 ± 6 beats min^−1; the “Heart rate, Difference” value is given as 0 ± 0 beats min^−1. For the same substance, in experiment [2], the “% Activity relative to the effect of Carmo-HrTH-II (metabolic)” value is 28%; the “Hemolymph carbohydrates, 90 min” value worked out at 10.6 ± 2.0 mg/mL; the “Hemolymph carbohydrates, Difference” value came out at 1.5 ± 1.1 mg/mL; the “Hemolymph carbohydrates, 0 min” value is 9.0 ± 1.3 mg/mL.

Consider “pGlu-Ala-Thr-Phe-Thr-Pro-Asn-Trp-Gly-Thr amide [Ala^2-Carmo-HrTH-II]”, for which, in experiment [1], the “Heart rate, Post-application” value turned out to be 42 ± 5 beats min^−1; the “Heart rate, Pre-application” value worked out at 42 ± 7 beats min^−1; the “Heart rate, Difference” value is given as 0 ± 2 beats min^−1. Also, in experiment [2], the “% Activity relative to the effect of Carmo-HrTH-II (metabolic)” value turned out to be 100%; the “Hemolymph carbohydrates, 90 min” value is 16.8 ± 1.7 mg/mL; the “Hemolymph carbohydrates, Difference” value worked out at 5.4 ± 1.7 mg/mL; the “Hemolymph carbohydrates, 0 min” value was found to be 11.4 ± 2.3 mg/mL.

On to “pGlu-Leu-Ala-Phe-Thr-Pro-Asn-Trp-Gly-Thr amide [Ala^3-Carmo-HrTH-II]”, for which, in experiment [1], the “% Activity relative to the effect of Carmo-HrTH-II (myotropic)” value amounted to 16%; the “Heart rate, Post-application” value came out at 40 ± 6 beats min^−1; the “Heart rate, Pre-application” value worked out at 38 ± 6 beats min^−1; the “Heart rate, Difference” value stood at 2 ± 1 beats min^−1. Besides, in experiment [2], the “Hemolymph carbohydrates, 90 min” value is 11.1 ± 1.8 mg/mL; the “Hemolymph carbohydrates, Difference” value amounted to 0.8 ± 1.6 mg/mL; the “Hemolymph carbohydrates, 0 min” value was 10.3 ± 2.4 mg/mL.

“pGlu-Leu-Asn-Phe-Thr-Pro-Asn-Trp amide [Pyrap-AKH, naturally-occurring AKH octapeptide bioanalog, reference compound]”: in experiment [1], the “% Activity relative to the effect of Carmo-HrTH-II (myotropic)” value was 16%; the “Heart rate, Post-application” value is given as 41 ± 4 beats min^−1; the “Heart rate, Pre-application” value was 39 ± 5 beats min^−1; the “Heart rate, Difference” value was 2 ± 2 beats min^−1. In addition, in experiment [2], the “Hemolymph carbohydrates, 90 min” value amounted to 9.2 ± 1.8 mg/mL; the “Hemolymph carbohydrates, Difference” value was 0.5 ± 1.0 mg/mL; the “Hemolymph carbohydrates, 0 min” value came out at 8.7 ± 1.8 mg/mL.

For “pGlu-Leu-Asn-Phe-Thr-Pro-Asn-Trp-Gly-Ser amide [Phymo-AKH, naturally-occurring AKH decapeptide bioanalog, reference compound]”, in experiment [1], the “% Activity relative to the effect of Carmo-HrTH-II (myotropic)” value was found to be 8%; the “Heart rate, Post-application” value is 38 ± 4 beats min^−1; the “Heart rate, Pre-application” value turned out to be 37 ± 3 beats min^−1; the “Heart rate, Difference” value was 1 ± 1 beats min^−1. Moreover, in experiment [2], the “Hemolymph carbohydrates, 90 min” value stood at 10.5 ± 1.4 mg/mL; the “Hemolymph carbohydrates, Difference” value amounted to 0.9 ± 1.7 mg/mL; the “Hemolymph carbohydrates, 0 min” value came to 9.6 ± 1.8 mg/mL.

“pGlu-Leu-Asn-Phe-Thr-Pro-Asn-Trp-Gly-Thr amide [Locmi-AKH-I, naturally-occurring AKH decapeptide bioanalog, reference compound]”: in experiment [1], the “% Activity relative to the effect of Carmo-HrTH-II (myotropic)” value worked out at 25%; the “Heart rate, Post-application” value was 43 ± 4 beats min^−1; the “Heart rate, Pre-application” value is 40 ± 4 beats min^−1; the “Heart rate, Difference” value is 3 ± 1 beats min^−1. For the same substance, in experiment [2], the “% Activity relative to the effect of Carmo-HrTH-II (metabolic)” value is 19%; the “Hemolymph carbohydrates, 90 min” value stood at 9.9 ± 1.2 mg/mL; the “Hemolymph carbohydrates, Difference” value came to 1.0 ± 1.2 mg/mL; the “Hemolymph carbohydrates, 0 min” value came out at 8.9 ± 1.3 mg/mL.

On to “pGlu-Leu-Thr-Ala-Thr-Pro-Asn-Trp-Gly-Thr amide [Ala^4-Carmo-HrTH-II]”, for which, in experiment [1], the “Heart rate, Post-application” value is given as 41 ± 4 beats min^−1; the “Heart rate, Pre-application” value came to 40 ± 4 beats min^−1; the “Heart rate, Difference” value is given as 1 ± 1 beats min^−1. For the same substance, in experiment [2], the “Hemolymph carbohydrates, 90 min” value was 9.1 ± 2.4 mg/mL; the “Hemolymph carbohydrates, Difference” value is 0.5 ± 2.3 mg/mL; the “Hemolymph carbohydrates, 0 min” value was determined as 8.6 ± 2.2 mg/mL.

Take “pGlu-Leu-Thr-Phe-Ala-Pro-Asn-Trp-Gly-Thr amide [Ala^5-Carmo-HrTH-II]”: in experiment [1], the “Heart rate, Post-application” value is 40 ± 7 beats min^−1; the “Heart rate, Pre-application” value was 39 ± 7 beats min^−1; the “Heart rate, Difference” value came out at 1 ± 2 beats min^−1. Moreover, in experiment [2], the “Hemolymph carbohydrates, 90 min” value is 10.1 ± 1.3 mg/mL; the “Hemolymph carbohydrates, Difference” value was -0.1 ± 0.1 mg/mL; the “Hemolymph carbohydrates, 0 min” value came to 10.2 ± 1.2 mg/mL.

Regarding “pGlu-Leu-Thr-Phe-Thr-Ala-Asn-Trp-Gly-Thr amide [Ala^6-Carmo-HrTH-II]”, in experiment [1], the “Heart rate, Post-application” value is 43 ± 5 beats min^−1; the “Heart rate, Pre-application” value worked out at 43 ± 5 beats min^−1; the “Heart rate, Difference” value was 0 ± 0 beats min^−1. Moreover, in experiment [2], the “Hemolymph carbohydrates, 90 min” value is 11.1 ± 0.9 mg/mL; the “Hemolymph carbohydrates, Difference” value amounted to 1.6 ± 1.1 mg/mL; the “Hemolymph carbohydrates, 0 min” value came out at 9.5 ± 1.2 mg/mL.

Turning to “pGlu-Leu-Thr-Phe-Thr-Pro-Ala-Trp-Gly-Thr amide [Ala^7-Carmo-HrTH-II]”, in experiment [1], the “Heart rate, Post-application” value was determined as 39 ± 4 beats min^−1; the “Heart rate, Pre-application” value was 39 ± 4 beats min^−1; the “Heart rate, Difference” value turned out to be 0 ± 1 beats min^−1. In experiment [2], the “% Activity relative to the effect of Carmo-HrTH-II (metabolic)” value turned out to be 13%; the “Hemolymph carbohydrates, 90 min” value is 12.0 ± 2.2 mg/mL; the “Hemolymph carbohydrates, Difference” value stood at 0.7 ± 0.6 mg/mL; the “Hemolymph carbohydrates, 0 min” value was 11.3 ± 2.0 mg/mL.

Take “pGlu-Leu-Thr-Phe-Thr-Pro-Asn-Ala-Gly-Thr amide [Ala^8-Carmo-HrTH-II]”: in experiment [1], the “Heart rate, Post-application” value stood at 42 ± 4 beats min^−1; the “Heart rate, Pre-application” value came to 42 ± 5 beats min^−1; the “Heart rate, Difference” value is reported as 0 ± 2 beats min^−1. Further, in experiment [2], the “Hemolymph carbohydrates, 90 min” value was 8.3 ± 1.9 mg/mL; the “Hemolymph carbohydrates, Difference” value was -0.1 ± 1.3 mg/mL; the “Hemolymph carbohydrates, 0 min” value was found to be 8.5 ± 2.1 mg/mL.

“pGlu-Leu-Thr-Phe-Thr-Pro-Asn-Trp amide [Peram-CAH-II, naturally-occurring AKH octapeptide bioanalog, reference compound]”: in experiment [2], the “% Activity relative to the effect of Carmo-HrTH-II (metabolic)” value is 30% and 31%; the “Hemolymph carbohydrates, 90 min” value stood at 11.0 ± 1.1 mg/mL; the “Hemolymph carbohydrates, Difference” value was found to be 1.7 ± 2.0 mg/mL; the “Hemolymph carbohydrates, 0 min” value was determined as 9.3 ± 1.8 mg/mL.

In the case of “pGlu-Leu-Thr-Phe-Thr-Pro-Asn-Trp*-Gly-Thr amide [Carmo-HrTH-I, endogenous hormone isolated from C. morosus CC; Trp^8 C-mannosylated, reference compound]”, in experiment [1], the “% Activity relative to the effect of Carmo-HrTH-II (myotropic)” value is listed as 108^b %; the “Heart rate, Post-application” value was determined as 54 ± 2 beats min^−1; the “Heart rate, Pre-application” value is 41 beats min^−1 and 41 ± 4 beats min^−1; the “Heart rate, Difference” value was 13 ± 2 beats min^−1. Further, in experiment [2], the “% Activity relative to the effect of Carmo-HrTH-II (metabolic)” value is 91^b %; the “Hemolymph carbohydrates, 90 min” value was 12.9 ± 1.9 mg/mL; the “Hemolymph carbohydrates, Difference” value came to 4.9 ± 1.1 mg/mL; the “Hemolymph carbohydrates, 0 min” value was determined as 8.0 ± 1.6 mg/mL.
